The values that follow come from PubChem BioAssay AID330 (DTP/NCI, 2004).

The subject of this assay is P388 leukemia ip, CD2F1 mice, survival T/C. Nature of the assay: NCI In Vivo Anticancer Drug Screen. Data for tumor model P388 Leukemia (intraperitoneal) in CD2F1 (CDF1) mice. Particulars: endpoint: median survival time, higher = longer survival. In outline:
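Mice carrying the transplanted tumor received test compound or vehicle. Survival was recorded in each group, and the value is the treated-group measurement divided by that of the vehicle-treated control group.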

Setting [1] is: dose: 50.0 mg/kg/injection, schedule: Q01DX005 (ip), vehicle: saline with Tween-80.
[2] abbreviates: dose: 100.0 mg/kg/injection, schedule: Q01DX005 (ip), vehicle: saline with Tween-80.
Setting [3] is: dose: 200.0 mg/kg/injection, schedule: Q01DX005 (ip), vehicle: saline with Tween-80.
[4] abbreviates: dose: 100.0 mg/kg/injection, schedule: Q04DX002 (ip), vehicle: saline with Tween-80.
[5] abbreviates: dose: 200.0 mg/kg/injection, schedule: Q04DX002 (ip), vehicle: saline with Tween-80.
Setting [6] is: dose: 200.0 mg/kg/injection, schedule: Q01DX009 (ip), vehicle: saline with Tween-80.
[7] abbreviates: dose: 60.0 mg/kg/injection, schedule: Q01DX005 (ip), vehicle: Klucel (hydroxypropylcellulose) (HPC).
The mark [8] stands for this setting: dose: 120.0 mg/kg/injection, schedule: Q01DX005 (ip), vehicle: Klucel (hydroxypropylcellulose) (HPC).
Where [9] appears, read: dose: 240.0 mg/kg/injection, schedule: Q01DX005 (ip), vehicle: Klucel (hydroxypropylcellulose) (HPC).
[10] abbreviates: dose: 50.0 mg/kg/injection, schedule: Q01DX009 (ip), vehicle: saline.
The mark [11] stands for this setting: dose: 100.0 mg/kg/injection, schedule: Q01DX009 (ip), vehicle: saline.
Setting [12] is: dose: 200.0 mg/kg/injection, schedule: Q01DX009 (ip), vehicle: saline.
Setting [13] is: dose: 50.0 mg/kg/injection, schedule: Q01DX005 (ip), vehicle: Klucel (hydroxypropylcellulose) (HPC).
Setting [14] is: dose: 100.0 mg/kg/injection, schedule: Q01DX005 (ip), vehicle: Klucel (hydroxypropylcellulose) (HPC).
Setting [15] is: dose: 200.0 mg/kg/injection, schedule: Q01DX005 (ip), vehicle: Klucel (hydroxypropylcellulose) (HPC).

SMILES strings stand for the structures. Several values for one entry are separate records, joined by “and”; a condition that tells them apart may be missing. Equal entries are not always repeated. Toxic doses and inconclusive results are not listed.

For `COC(=O)[C@H]1O[C@H]1c1ccccn1`, the T/C is 103 % of control (dose: 25.0 mg/kg/injection, schedule: Q01DX005 (ip), vehicle: distilled water + alcohol); 106 % of control (dose: 50.0 mg/kg/injection, schedule: Q01DX005 (ip), vehicle: distilled water + alcohol); 99 % of control (dose: 100.0 mg/kg/injection, schedule: Q01DX005 (ip), vehicle: distilled water + alcohol); 107 % of control (dose: 200.0 mg/kg/injection, schedule: Q01DX005 (ip), vehicle: distilled water + alcohol).

As for `Cc1[nH]c2c(ccc3c2ccc2c(=O)c(Cl)c(C)[nH]c23)c(=O)c1Cl`, the T/C by setting is: under setting [1], 96 % of control; under setting [2], 95 % of control; under setting [3], 94 % of control.

Take `O=C1NC(=O)C2(CCC(O)C2)c2cc[n+]([O-])cc21` (stereo not drawn): the T/C was 96 % of control (dose: 12.5 mg/kg/injection, schedule: Q01DX005 (ip), vehicle: saline); 105 % of control (dose: 25.0 mg/kg/injection, schedule: Q01DX005 (ip), vehicle: saline); 105 % of control (dose: 50.0 mg/kg/injection, schedule: Q01DX005 (ip), vehicle: saline); 100 % of control (dose: 100.0 mg/kg/injection, schedule: Q01DX005 (ip), vehicle: saline).

In the case of `CC(C)=CCC(OC(=O)C=C(C)C)c1cc(O)c2c(O)ccc(O)c2c1O.[Ni]` (stereo not drawn), the T/C was 111 % of control under setting [4]; 105 % of control under setting [5]; 114 % of control (dose: 400.0 mg/kg/injection, schedule: Q04DX002 (ip), vehicle: saline with Tween-80).

`CCC(C)C1NC(=O)C(NC(=O)c2c3nc4c(C(=O)NC5C(=O)NC(C(C)CC)C(=O)N6CCCC6C(=O)N(C)CC(=O)N(C)C(C(C)C)C(=O)OC5C)cc([N+](=O)[O-])c(C)c4oc-3c(C)c(=O)c2N)C(C)OC(=O)C(C(C)C)N(C)C(=O)CN(C)C(=O)C2CCCN2C1=O` (stereo not drawn): the T/C (dose: 0.2 mg/kg/injection, schedule: Q01DX009 (ip), vehicle: Klucel (hydroxypropylcellulose) (HPC)) was 168 % of control; the T/C (dose: 0.4 mg/kg/injection, schedule: Q01DX009 (ip), vehicle: Klucel (hydroxypropylcellulose) (HPC)) is 228 % of control; the T/C (dose: 0.4 mg/kg/injection, schedule: Q01DX009 (ip), vehicle: water) was 169 % of control; the T/C (dose: 0.6 mg/kg/injection, schedule: Q01DX009 (ip), vehicle: water) was 193 % of control; the T/C (dose: 0.8 mg/kg/injection, schedule: Q01DX009 (ip), vehicle: Klucel (hydroxypropylcellulose) (HPC)) is 92 % of control.

Regarding `CCOC(OCC)c1ccc(Cl)cc1`, the T/C is, setting by setting: (dose: 100.0 mg/kg/injection, schedule: Q04DX003 (ip), vehicle: saline with Tween-80) 100 % of control; (dose: 200.0 mg/kg/injection, schedule: Q04DX003 (ip), vehicle: saline with Tween-80) 105 % of control; (dose: 400.0 mg/kg/injection, schedule: Q04DX003 (ip), vehicle: saline with Tween-80) 106 % of control.

For `CC1CC12OC(=O)N(c1cc(Cl)cc(Cl)c1)C2=O` (stereo not drawn), the T/C (dose: 50.0 mg/kg/injection, schedule: Q01DX005 (ip), vehicle: saline + Tween-80 + alcohol) was 98 % of control; the T/C (dose: 100.0 mg/kg/injection, schedule: Q01DX005 (ip), vehicle: saline + Tween-80 + alcohol) was 100 % of control; the T/C (dose: 200.0 mg/kg/injection, schedule: Q01DX005 (ip), vehicle: saline + Tween-80 + alcohol) is 101 % of control.

As to `CN(N=O)c1ccc(/C=C/c2ccnc3ccccc23)cc1`, the T/C reads like this: (dose: 88.0 mg/kg/injection, schedule: Q01DX009 (ip), vehicle: saline with Tween-80) 113 % of control; (dose: 132.0 mg/kg/injection, schedule: Q01DX009 (ip), vehicle: saline with Tween-80) 118 % of control; under setting [6], 154 % of control.

Regarding `COc1ccc(Br)cc1C1SCC(=O)N1c1nncs1` (stereo not drawn), the T/C runs as follows: under setting [7], 101 % of control; under setting [8], 101 % of control; under setting [9], 93 % of control.

As to `O=c1c2ccccc2oc2cc3c(c(O)c12)CCCC3`, the T/C (dose: 12.5 mg/kg/injection, schedule: Q01DX005 (ip), vehicle: saline with Tween-80) was 91 % of control and the T/C (dose: 25.0 mg/kg/injection, schedule: Q01DX005 (ip), vehicle: saline with Tween-80) is 97 % of control.

Turning to `O=C(COc1cc(Cl)c(Cl)cc1Cl)OCCOc1cc(Cl)c(Cl)cc1Cl`, the T/C was 100 % of control (dose: 1.0 mg/kg/injection, schedule: Q01DX009 (ip), vehicle: saline with Tween-80); 100 % of control (dose: 2.0 mg/kg/injection, schedule: Q01DX009 (ip), vehicle: saline with Tween-80); 95 % of control (dose: 4.0 mg/kg/injection, schedule: Q01DX009 (ip), vehicle: saline with Tween-80).

With `NCCCCC(N)C(=O)O` (stereo not drawn), the T/C under setting [10] was 104 % of control, the T/C under setting [11] was 100 % of control and the T/C under setting [12] is 94 % of control.

For `CS(=O)(=O)OC1C(COC(=O)c2ccccc2)OC2C1Oc1nc(=O)ccn12` (stereo not drawn), the T/C was 98 % of control under setting [13], 99 % of control under setting [14] and 101 % of control under setting [15].

For the compound `Clc1ccc(-c2csc3nc(-c4cccs4)nn23)cc1`, the T/C reads like this: (dose: 30.0 mg/kg/injection, schedule: Q01DX005 (ip), vehicle: Klucel (hydroxypropylcellulose) (HPC)) 97 % of control; under setting [7], 95 % of control; under setting [8], 95 % of control; under setting [9], 93 % of control.

Consider `O=C1CSC(c2c(O)ccc3ccccc23)N1CCN1C(=O)CSC1c1c(O)ccc2ccccc12` (stereo not drawn), for which the T/C runs as follows: (dose: 100.0 mg/kg/injection, schedule: Q01DX001 (ip), vehicle: saline with Tween-80) 97 % of control; (dose: 200.0 mg/kg/injection, schedule: Q01DX001 (ip), vehicle: saline with Tween-80) 92 % of control; (dose: 400.0 mg/kg/injection, schedule: Q01DX001 (ip), vehicle: saline with Tween-80) 90 % of control.

In the case of `Nc1nc(-c2ccc(Nc3ccnc4cc(Cl)ccc34)cc2)cs1`, the T/C is 96 % of control under setting [1], 88 % of control under setting [2] and 86 % of control under setting [3].

Take `Clc1ccc(-c2noc(/C=C\c3ccccc3)n2)cc1`: the T/C (dose: 25.0 mg/kg/injection, schedule: Q01DX009 (ip), vehicle: Klucel (hydroxypropylcellulose) (HPC)) was 99 % of control and 86 % of control; the T/C (dose: 50.0 mg/kg/injection, schedule: Q01DX009 (ip), vehicle: Klucel (hydroxypropylcellulose) (HPC)) is 98 % of control and 86 % of control; the T/C (dose: 100.0 mg/kg/injection, schedule: Q01DX009 (ip), vehicle: Klucel (hydroxypropylcellulose) (HPC)) is 86 % of control and 97 % of control; the T/C (dose: 200.0 mg/kg/injection, schedule: Q01DX009 (ip), vehicle: Klucel (hydroxypropylcellulose) (HPC)) was 95 % of control.

As for `N#CCCOCC(COCCC#N)OCCC#N`, the T/C by setting is: under setting [10], 105 % of control; under setting [11], 92 % of control; under setting [12], 102 % of control.

In the case of `O=c1c2ccccc2oc2c(Br)c3c(c(O)c12)CCCC3`, the T/C under setting [13] was 103 % of control, the T/C under setting [14] was 87 % of control and the T/C under setting [15] was 96 % of control.

For `N=C(N)S(=O)O`, the T/C reads like this: (dose: 25.0 mg/kg/injection, schedule: Q01DX009 (ip), vehicle: saline with Tween-80) 99 % of control; (dose: 50.0 mg/kg/injection, schedule: Q01DX009 (ip), vehicle: saline with Tween-80) 100 % of control; under setting [10], 96 % of control; (dose: 100.0 mg/kg/injection, schedule: Q01DX009 (ip), vehicle: saline with Tween-80) 98 % of control; under setting [6], 101 % of control; under setting [12], 95 % of control.

Consider `Nc1nc(CCCCc2ccccc2)c(N=Nc2ccc(Cl)cc2)c(=O)[nH]1`, for which the T/C was 97 % of control (dose: 60.0 mg/kg/injection, schedule: Q01DX005 (ip), vehicle: saline with Tween-80); 95 % of control (dose: 120.0 mg/kg/injection, schedule: Q01DX005 (ip), vehicle: saline with Tween-80); 103 % of control (dose: 240.0 mg/kg/injection, schedule: Q01DX005 (ip), vehicle: saline with Tween-80).

For the compound `CC1(Cl)C(c2ccccc2)=[N+]([O-])[N+]([O-])=C1c1ccccc1`, the T/C was 112 % of control under setting [4] and 112 % of control under setting [5].
